Data from ChEMBL document CHEMBL1148182, “Flavonone and chalcone derivatives from Cryptocarya kurzii” (J Nat Prod, 1993).
Values after ≈ are worked out from the molar mass of the structure shown.

System: KB
Experiment: Cytotoxicity against human KB cells
Assay type: functional, cell-based

O=C1CCC[C@@H]2C[C@H](C[C@](O)(/C=C/c3ccccc3)O2)c2c(cc(O)c3c2O[C@H](c2ccccc2)CC3=O)O1 [KURZIFLAVOLACTONE B]
IC50: 4 µg/mL (≈ 7.6 µM)

O=C1CCC[C@@H]2C[C@H](C[C@](O)(/C=C/c3ccccc3)O2)c2c(cc(O)c(C(=O)/C=C/c3ccccc3)c2O)O1 [KURZICHALCOLACTONE]
IC50: 15 µg/mL (≈ 28.5 µM)
